Series [1] is described as follows: transport through open pores in the SC of a plasma treated area. As to conditions: applied more than 5 minutes after plasma treatment.
A short description of series [2]: plasmaporation-enhanced transdermal delivery across ex vivo porcine skin. The format is in vitro ADME. An excerpt: 27, 2013 and Sep. 29, 2013 incorporated herein. Others devices and techniques are described in U.S. Non-Provisional application Ser. No. 14/564,717 filed on Dec. 9, 2014, U.S. Non-Provisional application Ser. No. 14/610,467 filed on Jan. 30, 2015, and U.S. Non-Provisional application Ser. No. 14/967,512 filed on Dec. 14, 2015. All of these applications are incorporated by reference herein in their entirety.

Dextran [10 kDa Dextran]: the “transport through the SC when applied after 5 minutes” value in series [1] is reported as “no longer passed through the SC”.
Take dextran: the skin damage entry in series [2] was “without creating skin damage”. The “time of transdermal delivery of topically applied molecules across skin with plasmaporation” value in series [2] (topically applied) is not above 15 min.

The values above are taken from patent publication US20170246468A1, “METHODS AND SYSTEMS FOR CONTROLLING OR TUNING THE ELECTRIC FIELD GENERATED IN SKIN OR TISSUE DURING COLD PLASMA SKIN TREATMENTS” (EP Technologies LLC, priority 2016, published 2017).
